The values below come from ChEMBL document CHEMBL6083277, “Discovery of SZJK-0421: A Novel Potent, Low Toxicity, Selective Second Generation of CRM1 Inhibitor for the Treatment of Both Hematological and Solid Tumors” (J Med Chem, 2024).

Data set [1] in a line: Toxicity in BALB/c mouse assessed as shortened intestinal tract at 90 to 120 mg/kg, po administered once daily for 21 days. Type of data set: organism-based. To be noted: in vivo, 504 h, dose 90-120 mg/kg, time 21 day.
Data set [2] relates to MM1.S. In words: Antitumor activity against human MM1.S cells xenografted in NOD-SCID mouse assessed as tumor growth inhibition at 30 mg/kg, po qd measured upto 21 days. Type of data set: functional. To be noted: 504 h, time <= 21 day, read-out: TGI. (In xenograft studies the graft and the host belong to different species.)
Data set [3] is described as follows: Cmax in male Sprague-Dawley rat at 10 mg/kg, po measured upto 30 hrs by LC-MS/MS analysis. The data set is classed as ADME, organism-based. To be noted: in vivo.
Data set [4] is described as follows: Toxicity in NOD-SCID mouse implanted with human ARH-77 cells assessed as change in body weight at 15 to 60 mg/kg, po measured every 2 days for 21 days. Type of data set: organism-based. Particulars: in vivo, 504 h, dose 15-60 mg/kg, time 21 day.
The subject of data set [5] is MM1.S. In words: Inhibition of CRM1 protein expression in human MM1.S cells by Western blot analysis. Particulars: dose 0.25-1.25 µM. Type of data set: functional, cell-based. (Immunoblotting shows a protein as a band on a membrane.)
Data set [6] can be described thus: Toxicity in NOD-SCID mouse implanted with human HCT-116 cells assessed as body weight loss at 60 mg/kg, po measured every 2 days for 21 days. Type of data set: organism-based. Particulars: in vivo, 504 h, time 21 day.

In general, Cmax refers to the maximum level reached in the sampled fluid or tissue. Consider `CONC(=O)/C(=C/n1cnc(-c2cc(C(F)(F)F)cc(C(F)(F)F)c2)n1)c1cncnc1`, for which the Activity entry in data set [1] is reported as “Non-toxic”; in data set [4], “Toxic”; in data set [6], “Non-toxic”. Also, the inhibition in vivo at 30 mg/kg in the data set with MM1.S [2] came to 86.6%. In data set [3], this molecule registered a maximum concentration (Cmax) of 899 ng/mL. Besides, the inhibition entry in the data set on MM1.S [5] was “Dose-dependent-effect”.
